Assays:
[1] = Partition coefficient, logP of compound by RP-HPLC analysis; type: physicochemical; conditions: octanol/water
Cytochrome P450 3A4 = Cytochrome P450 3A4 (Homo sapiens, UniProt P08684); assay: (§1) Mechanism based inactivation of CYP3A4 in human liver microsome assessed as remaining activity at 100 uM preincubated for 30 mins followed testosterone addition and measured after 10 mins by LC-MS/MS analysis relative to control; type: ADME, microsomes; conditions: microsomes, 10 min, 100 µM
Chain of Cytochrome P450 3A4 (P08684 whole entry): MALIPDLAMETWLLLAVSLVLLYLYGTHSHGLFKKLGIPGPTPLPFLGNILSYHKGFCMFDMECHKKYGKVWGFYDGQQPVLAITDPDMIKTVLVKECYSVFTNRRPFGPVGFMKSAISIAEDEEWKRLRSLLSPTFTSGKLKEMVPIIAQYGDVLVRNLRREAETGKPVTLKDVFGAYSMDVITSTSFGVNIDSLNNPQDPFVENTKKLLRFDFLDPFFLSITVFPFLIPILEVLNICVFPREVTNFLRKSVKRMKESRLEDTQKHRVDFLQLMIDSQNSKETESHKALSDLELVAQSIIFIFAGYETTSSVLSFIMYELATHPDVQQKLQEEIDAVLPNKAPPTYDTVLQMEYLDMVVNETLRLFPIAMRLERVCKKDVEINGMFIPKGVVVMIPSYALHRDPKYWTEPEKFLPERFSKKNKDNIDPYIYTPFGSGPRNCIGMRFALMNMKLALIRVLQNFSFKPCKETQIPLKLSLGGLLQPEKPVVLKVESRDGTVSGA

Rattus norvegicus [2] = organism: Rattus norvegicus; assay: Modulation of FGFR in Wistar rat cerebrocortical/hippocampal neuronal cells assessed as protection against glutamate-induced neuronal cell death by measuring cell survival at 10 uM pretreated for 24 hrs followed by glutamate-stimulation by CCK8 assay relative to SUN13837
CYP3A4 = CYP3A4 (Homo sapiens, UniProt P08684); assay: as §1; type: ADME, microsomes; conditions: human liver microsomes, probe testosterone, read-out: Activity
Chain of CYP3A4 (P08684 whole entry): as above

Rattus norvegicus [3] = assay: Neuroprotective activity against microsphere induced Crl:CD(SD) rat cerebral embolism model assessed as recovery of motor coordination by measuring latency time at 1 mg/kg, po administered daily for 10 days starting from day 1 post microsphere injection and measured at 2 weeks after microsphere injection by rotarod test (reference value: 189.1 secs); type: functional
[4] = Elimination half life in Crl:CD(SD) rat at 1 mg/kg, iv by LC-MS/MS analysis; type: ADME, organism-based; conditions: in vivo, read-out: beta t1/2 (converted)
[5] = Clearance in Crl:CD(SD) rat at 1 mg/kg, iv by LC-MS/MS analysis; type: ADME, organism-based; conditions: in vivo
[6] = Ratio of drug level in Crl:CD(SD) rat brain to plasma at 1 mg/kg, iv measured after 1 hr by LC-MS/MS analysis; type: ADME, organism-based
[7] = Drug metabolism in human liver microsomes assessed as carboxylesterase-mediated hydrolytic rate for diamine compound formation at 100 uM incubated for 60 mins in absence of NADPH measured per mg protein by LC-MS/MS analysis; type: ADME; conditions: 1 h
[8] = Oral bioavailability in Crl:CD(SD) rat at 10 mg/kg by LC-MS/MS analysis; type: ADME, organism-based; conditions: in vivo
[9] = AUC in Crl:CD(SD) rat at 10 mg/kg, po by LC-MS/MS analysis; type: ADME, organism-based; conditions: in vivo
[10] = Volume of distribution in Crl:CD(SD) rat at 1 mg/kg, iv by LC-MS/MS analysis; type: ADME, organism-based; conditions: in vivo
[11] = AUC in Crl:CD(SD) rat at 5 mg/kg, po by LC-MS/MS analysis; type: ADME, organism-based; conditions: in vivo
[12] = Oral bioavailability in Crl:CD(SD) rat at 5 mg/kg by LC-MS/MS analysis; type: ADME, organism-based; conditions: in vivo

| logP ([1]; read-out: logP) | activity at 10 min, 100 µM (CYP3A4) | SMILES | Activity (Rattus norvegicus [2]) | other results |
| --- | --- | --- | --- | --- |
| 2.82 | – | C[C@@H]1C[C@H]2[C@@H]3CCC4=CC(=O)C=C[C@]4(C)[C@@]3(F)[C@@H](O)C[C@]2(C)[C@@]1(O)C(=O)CO [DEXAMETHASONE] | – | – |
| – | – | Cc1nc(OCC(=O)N(C)C2CN(Cc3ccccc3)CC2F)nc(C)c1N.Cl (centres undefined) | – | logP [1]: 4.8; Activity (Cytochrome P450 3A4): 96% |
| 1.7 | 62% | Cc1nc(OCC(=O)N(C)C2CCN(Cc3ncccc3F)CC2)nc(C)c1N | 119% | – |
| 2 | 98% | Cc1nc(OCC(=O)N(C)C2CCN(CC(F)F)CC2)nc(C)c1N | 76% | – |
| 1 | 99% | Cc1nc(OCC(=O)N(C)C2CCN(Cc3ncccn3)CC2)nc(C)c1N | 96% | – |
| 1.1 | 95% | Cc1nc(OCC(=O)N(C)C2CCN(C3COC3)CC2)nc(C)c1N | 78% | – |
| 2.6 | 75% | Cc1nc(OCC(=O)N(C)C2CCN(CC(F)(F)F)CC2)nc(C)c1N | 103% | – |
| 2.97 | – | CC(C)Cc1ccc(C(C)C(=O)O)cc1 (centres undefined) [IBUPROFEN] | – | – |
| 1.2 | 97% | Cc1nc(OCC(=O)N(C)C2CCN(C3(C)COC3)CC2)nc(C)c1N | 59% | – |
| – | 60% | Cc1nc(OCC(=O)N(C)C2CCN(Cc3ccccc3)CC2)nc(C)c1N | – | Time (Rattus norvegicus [3]): 307 s; half-life [4]: 1.4 h; clearance [5]: 41.7 mL/min/kg; Kp at 1 h [6]: 0.15; Drug metabolism [7]: 7.2 pmol/min; bioavailability [8]: 70%; AUC [9]: 3700 ng·h/mL; Vd [10]: 2.3 L/kg |
| 4 | 100% | CN(C(=O)COc1ccc(Cl)nn1)C1CCN(CC(F)(F)F)CC1 | 74% | – |
| 2.6 | 100% | CN(C(=O)COc1ccc(Cl)nn1)C1CCN(Cc2ncccc2F)CC1 | 44% | – |
| 0.7 | 97% | Cc1nc(OCC(=O)N(C)C2CCN(CC(C)(C)O)CC2)nc(C)c1N | 74% | – |
| 2.2 | 86% | Cc1nc(OCC(=O)N(C)C2CCN(CC3CC3(F)F)CC2)nc(C)c1N.Cl (racemic) | 189% | half-life [4]: 2.7 h; clearance [5]: 38.3 mL/min/kg; Kp at 1 h [6]: 0.12; AUC [11]: 1100 ng·h/mL; bioavailability [12]: 52%; Vd [10]: 3.2 L/kg |
| 3.1 | 99% | CN(C(=O)COc1ccc(Cl)nn1)C1CCN(CC2CC2(F)F)CC1 (centres undefined) | 105% | Time (Rattus norvegicus [3]): 315.5 s; half-life [4]: 1.7 h; clearance [5]: 38.3 mL/min/kg; Kp at 1 h [6]: 0.92; AUC [11]: 1590 ng·h/mL; Drug metabolism [7]: 0 pmol/min; bioavailability [12]: 73%; Vd [10]: 4.2 L/kg |

| SMILES | logP ([1]; read-out: logP) | activity at 10 min, 100 µM (CYP3A4) | Activity (Rattus norvegicus [2]) | other results |
| --- | --- | --- | --- | --- |
| Cc1nc(OCC(=O)N(C)C2CCN(Cc3ccccc3)C2)nc(C)c1N (centres undefined) | 2.6 | 55% | 77% | – |
| Cc1nc(OCC(=O)N(C)C2CN(Cc3ccccc3)C2)nc(C)c1N | 2.1 | 58% | 127% | – |
| Cc1nc(OCC(=O)N2CC[C@@H]3[C@H]2CN3Cc2ccccc2)nc(C)c1N | 2.8 | 40% | 87% | – |
| Cc1nc(OCC(=O)N(C)[C@H]2CN(Cc3ccccc3)C[C@@H]2O)nc(C)c1N (relative stereo) | 2.4 | 55% | 93% | – |
| Cc1nc(OCC(=O)N(C)C2CN(Cc3ccccc3)CC2F)nc(C)c1N (centres undefined) | 3.7 | – | – | Activity (Cytochrome P450 3A4): 16% |
